# Laboratory results published in patent US20110152269A1, “PROCESS FOR TREATING ANIMAL HABITATS” (H&S Chemical Company, Inc., priority 2001, published 2011).
# Key:
# [1] = Ammonia concentration in treated poultry houses during grow out; conditions: houses and bedding sprayed with 200 ppm aqueous solution before placement of birds; two houses of 26,000 birds; wood chip bedding; 57 day grow out
# Description: Two poultry houses containing 26,000 birds each were treated, by spraying the houses and bedding contained therein, with an aqueous solution of a product sold under the trademark PLT, at a concentration of 200 ppm. Treatment was effected prior to placement of the birds in the poultry houses. The bedding utilized was popular wood chips. After 57 days the grow out was complete. During the grow out periods the concentration of ammonia in the poultry houses varied between 30 and 70 ppm. […] Two poultry houses containing 26,000 birds each were treated by spraying the houses and bedding contained therein with an aqueous solution of TCM, at a concentration of 200 ppm. Treatment was effected prior to placement of the birds in the poultry houses. The bedding utilized was popular wood chips. After 57 days the grow out was complete. During the grow out the concentration of ammonia in the poultry houses never exceeded 20 ppm.
# salmonella = assay: Monitoring for salmonella in treated poultry houses during grow out; conditions: houses and bedding sprayed with 200 ppm aqueous solution before placement of birds; two houses of 25,000 birds; wood chip bedding; 56 day grow out
# Description: Two poultry houses containing 25,000 birds each were treated by spraying the houses and bedding contained therein with an aqueous solution of TCM, at a concentration of 200 ppm. Treatment was effected prior to placement of the birds in the poultry house. The bedding utilized was popular wood chips. After 56 days the grow out was complete. During the grow out the presence of salmonella was monitored.
# An untreated poultry house containing 25,000 birds was monitored during a 56 day grow out for the presence of salmonella. The bedding utilized was popular wood chips. After 56 days the grow out was complete. During the grow out the poultry house tested positive for salmonella.
substance,measurement,setting,value
trichloromelamine [TCM],concentration of ammonia in the poultry houses,[1],≤ 20 ppm
same,presence of salmonella during the grow out,salmonella,no salmonella was detected
